Patent publication US10202371B2, “Oxazolidin-2-one-pyrimidine derivatives and the use thereof as phosphatidylinositol-3-kinase inhibitors” (Novartis AG, priority 2012, dated 2019)

Molecular target: human PI3Kalpha p110 catalytic subunit (Rat-1 cells) (Homo sapiens (Human), UniProt P42336)
Assay: Cellular assay PI3Kalpha, p-Akt(S473) SureFire in Rat-1_PI3Kalpha cells
Type: cell-based
Settings: p-AKT(Ser473), 1 h treatment
Text: AlphaScreen (Amplified Luminescent Proximity Homogeneous Assay, ALPHA, Perkin Elmer) is a non-radioactive bead-based proximity assay technology to study biomolecular interactions in a homogenous microtiter plate format. The brand name SureFire denotes AlphaScreen assays that are adapted to quantify the phosphorylation of endogenous cellular proteins in cell lysates, by using matched antibody pairs, which consist of an anti-phospho-kinase and an anti-kinase antibody. The assay allows characterization of kinase signaling in cells as well as measurement of kinase inhibitor effects. The AlphaScreen technology provides several advantages over standard assay techniques such as ELISA, as it avoids time-consuming washing procedures and reduces plate handling. Furthermore, it is miniaturizable at least to a 384-well format and provides sensitivity down to the femtomolar range, dependent on the affinity of the antibodies included in the individual AlphaScreen SureFire assay kit. High sensitivity is reached by an intrinsic amplification mechanism, which involves production of singlet oxygen molecules. SureFire assay kits are commercially available for specific targets and include pairs of validated antibodies (PerkinElmer). […]

human PI3Kalpha p110 catalytic subunit (Rat-1 cells), sequence (P42336 whole entry): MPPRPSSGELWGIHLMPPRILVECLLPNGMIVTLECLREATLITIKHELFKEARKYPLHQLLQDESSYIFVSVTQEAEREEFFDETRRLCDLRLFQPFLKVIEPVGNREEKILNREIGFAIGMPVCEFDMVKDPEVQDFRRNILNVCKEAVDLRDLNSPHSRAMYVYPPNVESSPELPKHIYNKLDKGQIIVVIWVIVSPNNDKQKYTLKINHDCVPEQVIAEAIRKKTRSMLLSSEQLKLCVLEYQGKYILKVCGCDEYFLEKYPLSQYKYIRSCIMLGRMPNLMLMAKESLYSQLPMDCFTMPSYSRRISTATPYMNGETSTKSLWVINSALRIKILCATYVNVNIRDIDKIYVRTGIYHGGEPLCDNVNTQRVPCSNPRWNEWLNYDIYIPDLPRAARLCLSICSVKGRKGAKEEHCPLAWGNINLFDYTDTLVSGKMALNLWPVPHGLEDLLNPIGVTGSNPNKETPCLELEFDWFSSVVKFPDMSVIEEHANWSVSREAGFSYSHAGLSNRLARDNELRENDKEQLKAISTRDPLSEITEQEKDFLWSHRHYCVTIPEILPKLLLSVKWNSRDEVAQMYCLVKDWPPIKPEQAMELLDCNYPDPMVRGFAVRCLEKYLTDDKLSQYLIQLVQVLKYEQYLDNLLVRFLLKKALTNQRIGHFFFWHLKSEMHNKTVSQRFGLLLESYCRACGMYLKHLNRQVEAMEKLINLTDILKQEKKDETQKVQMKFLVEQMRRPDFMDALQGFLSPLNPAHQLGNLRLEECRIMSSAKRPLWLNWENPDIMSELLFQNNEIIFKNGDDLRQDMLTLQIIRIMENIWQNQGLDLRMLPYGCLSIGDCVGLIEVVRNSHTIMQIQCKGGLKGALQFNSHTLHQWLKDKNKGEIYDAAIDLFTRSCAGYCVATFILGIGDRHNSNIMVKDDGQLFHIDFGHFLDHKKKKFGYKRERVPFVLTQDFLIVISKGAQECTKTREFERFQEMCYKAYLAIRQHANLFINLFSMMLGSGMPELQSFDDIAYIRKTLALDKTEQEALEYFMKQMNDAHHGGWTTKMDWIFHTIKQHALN
human PI3Kalpha p110 catalytic subunit (Rat-1 cells), sequence (Q63787 whole entry partner): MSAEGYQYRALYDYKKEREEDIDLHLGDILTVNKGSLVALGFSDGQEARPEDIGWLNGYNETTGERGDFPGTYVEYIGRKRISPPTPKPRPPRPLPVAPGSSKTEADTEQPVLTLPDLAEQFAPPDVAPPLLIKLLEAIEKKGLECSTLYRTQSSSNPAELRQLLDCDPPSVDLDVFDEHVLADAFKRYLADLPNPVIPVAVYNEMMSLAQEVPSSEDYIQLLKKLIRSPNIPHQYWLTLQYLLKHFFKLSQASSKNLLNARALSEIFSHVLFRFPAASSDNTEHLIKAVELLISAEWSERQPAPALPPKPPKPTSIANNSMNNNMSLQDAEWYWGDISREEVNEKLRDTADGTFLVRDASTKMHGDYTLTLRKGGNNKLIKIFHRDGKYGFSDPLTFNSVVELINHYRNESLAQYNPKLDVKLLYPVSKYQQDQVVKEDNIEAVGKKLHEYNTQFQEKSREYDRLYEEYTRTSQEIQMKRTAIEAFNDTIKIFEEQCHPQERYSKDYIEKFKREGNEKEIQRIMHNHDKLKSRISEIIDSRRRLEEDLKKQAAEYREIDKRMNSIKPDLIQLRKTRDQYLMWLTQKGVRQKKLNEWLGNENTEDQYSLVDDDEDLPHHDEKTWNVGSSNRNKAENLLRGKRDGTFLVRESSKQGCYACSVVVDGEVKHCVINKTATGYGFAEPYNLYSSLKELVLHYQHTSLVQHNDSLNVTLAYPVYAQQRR

**Q.** Which Rat1-PI3Ka/IC50 does the source give for Nc1ncc(-c2cc(N3C(=O)O[C@@H](c4ccccc4)[C@@H]3CO)nc(N3CCOCC3)n2)c(C(F)(F)F)n1 [Example 10] here?
**A.** Its Rat1-PI3Ka/IC50 is 0.085 umol I-1.
